# Assay results taken from PubChem BioAssay AID1418 (Emory University Molecular Libraries Screening Center, 2008).
# The source made the active and inactive calls. The rule behind the calls is not given here.
# Biological target: Induced myeloid leukemia cell differentiation protein Mcl-1 (Homo sapiens) (UniProt Q07820)
# Assay: blockers of Bid binding to Mcl-1 – biochemical, TR-FRET, dose response (AID 1418)
# Settings: Mcl-1/Bid peptide binding, TR-FRET (europium/Dy647), 2 hr
# Induced myeloid leukemia cell differentiation protein Mcl-1 (Homo sapiens), sequence (Q07820 whole entry, looked up): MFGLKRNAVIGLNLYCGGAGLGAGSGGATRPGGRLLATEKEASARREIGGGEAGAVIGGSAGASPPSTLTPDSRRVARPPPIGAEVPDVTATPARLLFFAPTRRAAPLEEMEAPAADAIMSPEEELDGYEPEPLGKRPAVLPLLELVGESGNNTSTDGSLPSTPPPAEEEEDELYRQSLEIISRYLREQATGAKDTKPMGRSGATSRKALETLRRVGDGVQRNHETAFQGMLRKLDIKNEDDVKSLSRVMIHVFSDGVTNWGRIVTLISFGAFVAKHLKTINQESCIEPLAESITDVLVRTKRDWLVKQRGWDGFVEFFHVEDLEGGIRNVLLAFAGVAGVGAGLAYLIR
row,SMILES,IC50
1,CC(C)(C)c1c(Cl)c(O)c(-c2ccccc2)c(=O)n1-c1ccccc1,0.68 µM
2,O=C(O)C1Nc2c(O)cc(Cl)c([N+](=O)[O-])c2C2C=CCC12 (configuration not stated),0.58 µM
3,COC(=O)c1ccc(=O)c2nc3/c(=C/O)c(O)cc(=O)c3[nH]c12,3.23 µM
4,COc1ccccc1NC(=O)CSc1nc2ccccc2cc1Cc1ccccc1,> 54 µM (inactive)
5,O=C(N/N=C/c1ccncc1)c1cccc(S(=O)(=O)Nc2ccc(Cl)cc2)c1,2.24 µM
6,CC1=C(C#N)C(=O)NC(=O)/C1=C\c1ccc(-c2ccc(C)cc2[N+](=O)[O-])o1,1.09 µM
7,O=C(ONc1ccc(N=NC(=O)c2ccccc2O)cc1)c1ccccc1,inactive
8,C#Cc1ccc([C@@H]2C=C(C(=O)N3CCN(Cc4ccc5c(c4)OCO5)CC3)O[C@H](OCCCCO)C2)cc1,> 54 µM (inactive)
9,CCOC(=O)c1c(NC(=O)N/N=C/c2ccc(O)c(OC)c2)sc(C(C)=O)c1C,0.53 µM
10,O=C(COC(=O)c1ccc2ccccc2c1)NCCCc1ccccc1,> 54 µM (inactive)
11,O=C1CN(C(=O)CNCc2ccccc2)c2ccccc2N1,> 54 µM (inactive)
12,C=CCC1(/C=N/O)CCOC(C)(C)C1 (configuration not stated),> 54 µM (inactive)
13,O=C1NC(=S)N(C2CC2)C(=O)/C1=C/c1ccc2c(c1)CCN2CCCCl,0.66 µM
14,Cc1ccc(C(=O)NNC(=O)CSc2nnc3c(n2)[nH]c2ccc(F)cc23)cc1,> 54 µM (inactive)
15,CNc1nn(-c2cccc(Cl)c2)nc1N,> 54 µM (inactive)
16,O=C(CCS(=O)(=O)c1ccc(Br)s1)NC1CCCCCC1,> 54 µM (inactive)
17,O=[N+]([O-])c1ccc2c(c1)ncn2-c1ccccc1,> 54 µM (inactive)
18,O=C1NC(=O)N(c2ccc(F)cc2)C(=O)/C1=C/c1ccc2c(c1)CCCN2Cc1ccccc1,0.79 µM
19,O=[N+]([O-])c1ccc(/C=N/NC(=S)Nc2ccc(Cl)cc2Cl)s1,1.48 µM
20,NS(=O)(=O)c1cc2c(cc1Cl)NC(Cc1ccccc1)NS2(=O)=O (configuration not stated),> 54 µM (inactive)
21,O=C(NNC(=O)c1ccccc1Cl)c1ccccc1Cl,> 54 µM (inactive)
22,COC(=O)c1ccc2c(=O)n(CCCCCC(=O)NCc3ccc4c(c3)OCO4)c(=O)[nH]c2c1,inactive
23,O=C(CCCN1C(=O)c2ccccc2C1=O)NCCCn1ccnc1,> 54 µM (inactive)
24,CC(=O)Cc1cc(O)c2ccccc2c1OC(=O)c1ccc(Br)cc1,> 54 µM (inactive)

row,SMILES,IC50
1,CN(C)c1ccc(-c2nnc(-c3ccc(S(=O)(=O)C(F)F)cc3)o2)cc1,2.48 µM
2,COc1ccccc1NC(=O)CSc1nnnn1-c1ccc2c(c1)OCO2,> 54 µM (inactive)
3,CCN(CC)c1ccc2cc(-c3nc4ccccc4[nH]3)c(=O)oc2c1,1.62 µM
4,CC1(C)CC(=O)C(C(c2cccnc2)C2C(=O)CC(C)(C)CC2=O)C(=O)C1,> 54 µM (inactive)
5,Cc1nc2c(-c3ccc(Cl)cc3)cnn2c2c1CCC2,> 54 µM (inactive)
6,CCOC(=O)c1ccccc1NC(=O)c1nc2nccc(C)n2n1,> 54 µM (inactive)
7,O=C(CN1CCN(CCN2C(=O)c3cccc4cccc(c34)C2=O)CC1)c1ccc(F)cc1,> 54 µM (inactive)
8,O=C(Nc1ccccc1)NC1CCS(=O)(=O)C1 (configuration not stated),> 54 µM (inactive)
9,CCn1c(C)cc(/C=C2/NC(=O)N(CC(=O)Nc3cccc(C)c3)C2=O)c1C,3.19 µM
10,N=c1oc2cc(O)ccc2cc1C(=O)Nc1nc2ccccc2s1,> 54 µM (inactive)
11,Cc1cc(C)c2c(c1)C1C=CCC1C(c1ccc(S(=O)(=O)N3CCOCC3)cc1)N2 (configuration not stated),> 54 µM (inactive)
12,Cc1cc(-c2ccco2)n2c(nc3ccccc32)c1C#N,> 54 µM (inactive)
13,CCOC(=O)N1CCN(c2nc(C)c3c(n2)CCCC3=O)CC1,> 54 µM (inactive)
14,Cc1ccccc1C(=O)Nc1ccc2c(C#N)c3nc4ccccc4nc3n2c1,1.05 µM
15,COc1ccc2[nH]c(=O)c(CNC3CCCCC3)cc2c1,> 54 µM (inactive)
16,CCCN(CCC)CCNC(=O)C1CC(=O)N(c2ccc(OC)cc2)C1c1ccc(OC)cc1 (configuration not stated),> 54 µM (inactive)
17,O=c1c(CN2CCN(Cc3ccccc3)CC2)coc2ccc(Cl)cc12,> 54 µM (inactive)
18,CCN(CC)C(=O)COC(=O)c1cc(-c2ccc(OC)cc2)nc2ccccc12,> 54 µM (inactive)
19,Cc1sc(NC(=O)c2cc(-c3ccc(Cl)cc3)nc3ccccc23)c(C(N)=O)c1C,0.92 µM
20,O=C(Cn1nc(C(F)(F)F)c2c1CCCC2)NCc1ccco1,> 54 µM (inactive)
21,COc1cc(Cl)c(C)cc1NC(=O)CCCn1c(=O)oc2ccccc21,> 54 µM (inactive)
22,COc1cc2c(cc1OC)-c1cc(NC3CCCCCCC3)nc(=O)n1CC2,> 54 µM (inactive)
23,O=C(NN1C(=O)C2C(C1=O)C1C=CC2C12CC2)c1ccc(Cl)cc1 (configuration not stated),> 54 µM (inactive)
24,CCOc1ccc2nc(NC(=O)c3cccc(-c4cc5ccccc5oc4=O)c3)sc2c1,1.94 µM

row,SMILES,IC50
1,COc1ccc(CCNc2nc(-c3sc(C)nc3C)cs2)cc1OC,inactive
2,Cc1ccc(Nc2cc(=O)n(C3CCCCC3)c(=O)[nH]2)cc1C,> 54 µM (inactive)
3,O=S(=O)(c1cccc(-c2nnc(SC(F)F)n2-c2ccccc2)c1)N1CCCCC1,> 54 µM (inactive)
4,COc1cc(-c2ccc(Nc3ccccc3C(=O)O)c(OC)c2)ccc1Nc1ccccc1C(=O)O,0.85 µM
5,COc1ccc(C(C)=O)cc1COc1ccc(Cl)cc1Cl,> 54 µM (inactive)
6,CCNC(=O)c1cc(S(=O)(=O)N(C)C)c(Cl)cc1Cl,> 54 µM (inactive)
7,COC(=O)c1ccc(-c2nc3cc(Cl)c(N)cc3s2)cc1,> 54 µM (inactive)
8,Cc1cccc(OCc2nc(C#N)c(NCc3ccc4c(c3)OCO4)o2)c1,> 54 µM (inactive)
9,O=C(Cc1ccccc1)Nc1scc(-c2ccccc2)c1C(=O)N1CCOCC1,> 54 µM (inactive)
10,Cc1ccsc1C(=O)OCC(=O)N1CCOCC1,> 54 µM (inactive)
11,CCOc1ccc(-c2ccc(/C=C3/C(=N)N4C(C)=CSC4=NC3=O)o2)c([N+](=O)[O-])c1,0.83 µM
12,COC(=O)c1sccc1NC(=O)c1cc(C)on1,> 54 µM (inactive)
13,Cc1ccc(NC(=O)CN2CCc3ccccc3C2)cc1F,> 54 µM (inactive)
14,Cc1ccc(-n2c(=O)c3cc4c(=O)n(-c5ccc(C)c(C)c5)c(=O)c4c(C(=O)c4ccc(C(=O)O)cc4)c3c2=O)cc1C,6.91 µM
15,Fc1cc(F)c2nc(Nc3nc4cc5c(cc4s3)OCO5)sc2c1,0.59 µM
16,NC(=S)N/N=C/c1coc2c(ccc3ccccc32)c1=O,4.99 µM
17,Cc1noc2ncnc(SCc3ccc(C(F)(F)F)cc3)c12,> 54 µM (inactive)
18,NC(=O)c1cnn2c(-c3cccc(C(F)(F)F)c3)ccnc12,> 54 µM (inactive)
19,Cc1ccccc1C(=O)NC(=S)Nc1sc2c(c1C#N)CCCC2,> 54 µM (inactive)
20,CCN1C(=O)/C(=C\c2ccc(-c3ccc([N+](=O)[O-])cc3OC)o2)SC1=Nc1cccc(C(=O)O)c1,> 54 µM (inactive)
21,CCCCN(C)C(=O)c1coc(=O)c2ccccc12,> 54 µM (inactive)
22,COc1cc(OC)c2c(O)c3c(c(-c4c5c(c(O)c6c(OC)cc(OC)cc46)CO[C@@H](C)[C@H]5O)c2c1)[C@H](O)[C@H](C)OC3,14.4 µM
23,CCOc1ccc(NC(=O)c2oc3ccccc3c2NC(=O)CC)cc1,> 54 µM (inactive)
24,Cc1ccc(-c2cc(-c3ccc4c(c3)OCO4)c(C#N)c(N)n2)o1,16.4 µM
